Laboratory results taken from US8431610B2, “Alkanoylamino benzamide aniline HDAC inhibitor compounds” (Gilead Sciences, Inc., priority 2009, dated 2013).

Key:
HDAC-1 = HDAC-1 (Homo sapiens, UniProt Q13547); assay: HDAC inhibitory activity assay with HDAC-1 (fluorophore/quencher peptide substrate); assay type: biochemical; conditions: enzyme/compound mix incubated at room temperature for 2 hours; reaction about 45 minutes; fluorescence read
Experimental: (§1) HDAC inhibitory activity of the compound of Example 1 was measured by an assay in which HDAC-1 or -3 were used as a target molecule. The test compound was suspended in and titrated in DMSO. It was then spotted into a 384-well test plate. The enzyme, HDAC-1 or -3, was diluted in assay buffer containing 25 mM Tris-HCl (pH 8.0), 137 mM NaCl, 2.7 mM KCl, and 0.01% Tween-20 and added to the pre-spotted compound. The enzyme/compound mix was incubated at room temperature for 2 hours. The peptide substrate containing a fluorophore/quencher pair was diluted in the same assay buffer and added to the compound/enzyme mix initiating the reaction. The reaction incubated at room temperature for about 45 minutes. A concentrated developer solution was diluted in the assay buffer, and added to the reaction. The reaction was incubated at room temperature for about 15 minutes and relative fluorescence was read on an instrument reader.

HDAC-3 = HDAC-3 (Homo sapiens, UniProt O15379); assay: HDAC inhibitory activity assay with HDAC-3 (fluorophore/quencher peptide substrate); assay type: biochemical; conditions: enzyme/compound mix incubated at room temperature for 2 hours; reaction about 45 minutes; fluorescence read
Chain of HDAC-3 (O15379 whole entry, species assumed): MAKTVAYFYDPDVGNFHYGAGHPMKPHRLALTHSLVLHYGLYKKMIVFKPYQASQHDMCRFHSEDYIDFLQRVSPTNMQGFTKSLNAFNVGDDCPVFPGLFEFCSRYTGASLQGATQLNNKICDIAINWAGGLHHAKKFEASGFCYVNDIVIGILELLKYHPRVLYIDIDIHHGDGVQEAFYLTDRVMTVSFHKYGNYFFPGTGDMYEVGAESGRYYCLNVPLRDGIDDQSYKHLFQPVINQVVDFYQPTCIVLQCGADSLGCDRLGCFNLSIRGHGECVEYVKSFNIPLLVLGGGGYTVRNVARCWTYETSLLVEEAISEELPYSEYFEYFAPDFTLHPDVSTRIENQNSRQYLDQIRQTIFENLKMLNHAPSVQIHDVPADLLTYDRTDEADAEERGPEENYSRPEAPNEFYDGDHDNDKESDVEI
Chain of HDAC-3 (Q9Y618 395-489 partner limits assumed, species assumed): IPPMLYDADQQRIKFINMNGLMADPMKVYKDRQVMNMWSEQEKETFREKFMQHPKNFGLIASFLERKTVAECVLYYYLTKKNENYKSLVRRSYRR
Experimental: as §1

Chain of HDAC-1 (Q13547 whole entry, species assumed): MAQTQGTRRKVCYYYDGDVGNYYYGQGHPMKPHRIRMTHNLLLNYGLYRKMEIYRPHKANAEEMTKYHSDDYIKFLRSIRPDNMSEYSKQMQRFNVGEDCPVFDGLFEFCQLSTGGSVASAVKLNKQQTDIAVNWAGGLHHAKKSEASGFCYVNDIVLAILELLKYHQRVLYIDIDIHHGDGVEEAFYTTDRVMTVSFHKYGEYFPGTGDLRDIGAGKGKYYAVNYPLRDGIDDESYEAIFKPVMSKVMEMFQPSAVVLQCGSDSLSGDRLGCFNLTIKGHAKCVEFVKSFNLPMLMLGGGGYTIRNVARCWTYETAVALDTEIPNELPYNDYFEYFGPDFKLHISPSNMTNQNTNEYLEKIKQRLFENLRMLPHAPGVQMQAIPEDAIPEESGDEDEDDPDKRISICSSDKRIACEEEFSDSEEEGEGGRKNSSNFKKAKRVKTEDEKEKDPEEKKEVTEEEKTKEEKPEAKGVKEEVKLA

Q: For `CC(C(=O)Nc1ccc(C(=O)Nc2cc(-c3ccc(F)cc3)ccc2N)cc1)N1CCCC1` (centres unmarked) [Example 2, N-(2-Amino-5-(4-fluorophenyl)phenyl)-4-(2-(pyrrolidin-1-yl)propanamido)benzamide], which IC50 (HDAC-1) is on record?
A: 0.003 µM

Q: And the IC50 (HDAC-3)?
A: 3.11 µM

Q: Which results are given for `CC(C(=O)Nc1ccc(C(=O)Nc2cc(-c3ccc(Cl)s3)ccc2N)cc1)N1CCCC1=O` (centres unmarked) [Example 12, N-(2-Amino-5-(5-chlorothiophen-2-yl)phenyl)-4-(2-(2-oxopyrrolidin-1-yl)propanamido)benzamide]?
A: IC50 (HDAC-1): 0.0071 µM; IC50 (HDAC-3): 2.23 µM

Q: How did the IC50 (HDAC-1) turn out when `CC(C)(C(=O)Nc1ccc(C(=O)Nc2cc(-c3ccc(F)cc3)ccc2N)cc1)N1CCOCC1` [Example 10, N-(2-Amino-5-(4-fluorophenyl)phenyl)-4-(2-methyl-2-morpholinopropanamido)benzamide] was run?
A: 0.0041 µM

Q: What about the IC50 (HDAC-3) of the same molecule?
A: 3.63 µM

Q: `CC(C(=O)Nc1ccc(C(=O)Nc2cc(-c3ccc(F)cc3)ccc2N)cc1)N1CCOCC1` (centres unmarked) [Example 9] was tested. Which IC50 (HDAC-1) did it give?
A: 0.0047 µM

Q: What about the IC50 (HDAC-3) of the same molecule?
A: 3.06 µM

Q: Which results are given for `Nc1ccccc1NC(=O)c1ccc(NC(=O)C(c2ccccc2)N2CCOCC2)cc1` (centres unmarked) [Example 6, N-(2-aminophenyl)-4-(2-morpholino-2-phenylacetamido)benzamide]?
A: IC50 (HDAC-1): 0.0253 µM; IC50 (HDAC-3): 0.144 µM

Q: With `CC(C(=O)Nc1ccc(C(=O)Nc2ccccc2N)cc1)N1CCCC1` (centres unmarked) [Example 1, N-(2-Amino-phenyl)-4-(2-pyrrolidin-1-yl-propionylamino)-benzamide] as the molecule, how does the IC50 (HDAC-1) read?
A: 0.201 µM

Q: What does the source list for `CC(C(=O)Nc1ccc(C(=O)Nc2cc(-c3cccs3)ccc2N)cc1)N1CCCC1=O` (centres unmarked) [Example 5, N-(2-Amino-5-(thiophen-2-yl)phenyl)-4-(2-(2-oxopyrrolidin-1-yl)propanamido)benzamide]?
A: IC50 (HDAC-1): 0.0016 µM; IC50 (HDAC-3): 1.04 µM

Q: With `CC(C(=O)Nc1ccc(C(=O)Nc2cc(-c3cccs3)ccc2N)cc1)N1CCOCC1` (centres unmarked) [Example 8, N-(2-Amino-5-(thiophen-2-yl)phenyl)-4-(2-morpholinopropanamido)benzamide] as the molecule, how does the IC50 (HDAC-1) read?
A: 0.0028 µM

Q: What about the IC50 (HDAC-3) of the same molecule?
A: 1.35 µM

Q: Which IC50 (HDAC-1) does the source give for `CC(C(=O)Nc1ccc(C(=O)Nc2cc(-c3cccs3)ccc2N)cc1F)N1CCCC1=O` (centres unmarked) [Example 11, N-(2-Amino-5-(thiophen-2-yl)phenyl)-3-fluoro-4-(2-(2-oxopyrrolidin-1-yl)propanamido)benzamide] here?
A: 0.0019 µM

Q: And the IC50 (HDAC-3)?
A: 1.04 µM

Q: For `CC(C(=O)Nc1ccc(C(=O)Nc2cc(-c3cccs3)ccc2N)cc1)N1CCCC1` (centres unmarked) [Example 3, N-(2-Amino-5-(thiophen-2-yl)phenyl)-4-(2-(pyrrolidin-1-yl)propanamido)benzamide], which IC50 (HDAC-1) is on record?
A: 0.003 µM

Q: And the IC50 (HDAC-3)?
A: 2.1 µM

Q: Which IC50 (HDAC-1) does the source give for `CC(C(=O)Nc1ccc(C(=O)Nc2ccccc2N)cc1)N1CCCC1=O` (centres unmarked) [Example 4, N-(2-Aminophenyl)-4-(2-(2-oxopyrrolidin-1-yl)propanamido)benzamide] here?
A: 0.0915 µM

Q: And the IC50 (HDAC-3)?
A: 0.3 µM

Q: What does the source list for `CC(C(=O)Nc1ccc(C(=O)Nc2cc(-c3ccc(F)cc3)ccc2N)cc1)N1CCCC1=O` (centres unmarked) [Example 7, N-(2-Amino-5-(4-fluorophenyl)phenyl)-4-(2-(2-oxopyrrolidin-1-yl)propanamido)benzamide]?
A: IC50 (HDAC-1): 0.0027 µM; IC50 (HDAC-3): 1.54 µM
